Test results as given in US20220031709A1, “INHIBITION OF MICROSOMAL PROSTAGLANDIN E2 (PGE2) SYNTHASE-1 (MPGES-1)” (University of Kentucky Research Foundation, priority 2020, published 2022).

What was measured:
JAK = conditions: in vitro effect of PGE2; cited from earlier work
[1] = single IV dose in clinical trial: ceftriaxone 2 g, aztreonam 500 mg, cefotetan 1 g; read-out: Cmax in human plasma; cited from earlier work
[2] = system: carrageenan-induced hyperalgesia; assay: carrageenan-induced hyperalgesia, pre-treatment (paw withdrawal latency); format: in vivo, wild-type rats; conditions: for effect on carrageenan-induced hyperalgesia (PWL): IP 1 h before 1% carrageenan, ceftriaxone 200 mg/kg, cefotetan 100 mg/kg, oxycodone 5 mg/kg
[3] = system: carrageenan-induced hyperalgesia; assay: post-treatment model of carrageenan-induced hyperalgesia; format: in vivo, wild-type rats; conditions: for pain relief (PWL), post-treatment: treated IP 23 h after carrageenan, ceftriaxone 100 or 200 mg/kg, cefotetan 50 or 100 mg/kg, oxycodone 5 mg/kg
Protocol: To better model the clinical treatment of pain, ceftriaxone (FIG. 4) and cefotetan (FIG. 5) were also tested in a post-treatment model of carrageenan-induced hyperalgesia. Rats were first injected with carrageenan to induce the hyperalgesia/pain.

[4] = mouse, in vivo; cited from earlier work
human mPGES-1 = target: T1, human mPGES-1 (Homo sapiens, UniProt O14684); assay: in vitro activity assay (ELISA) against human mPGES-1; format: biochemical
T1 sequence (O14684 1-152): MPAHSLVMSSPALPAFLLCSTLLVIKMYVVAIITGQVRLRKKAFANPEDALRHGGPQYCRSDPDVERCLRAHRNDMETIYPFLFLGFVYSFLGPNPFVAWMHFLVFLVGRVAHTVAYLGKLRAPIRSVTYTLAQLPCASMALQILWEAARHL
Protocol: The inhibitory activity of these drugs against human mPGES-1 was determined in vitro using the previously described in vitro activity procedure, an enzyme-linked immunosorbent assay (ELISA). (Ding et al., 2018a; Ding et al., 2018b; Zhou et al., 2017).

[5] = system: carrageenan-induced paw edema; assay: carrageenan-induced paw edema, pre-treatment (percent increase in paw volume); format: in vivo, wild-type rats; conditions: IP 1 h before 1% carrageenan; ceftriaxone 200 mg/kg, cefotetan 100 mg/kg, oxycodone 5 mg/kg
[6] = system: CFA-induced knee joint arthritis; assay: CFA (adjuvant)-induced knee joint arthritis, arthritis score; format: in vivo, wild-type rats; conditions: IP daily on Days 3 to 6 after CFA on Day 0
Protocol: FIG. 6 illustrates the anti-inflammatory and analgesic effects (in terms of arthritis score) of ceftriaxone and cefotetan on CFA-induced knee joint arthritis in wild-type rats (n=10 for each group). CFA was injected to the knee joint on Day 0. Drug or vehicle (control) was injected (IP) daily on Days 3 to 6. Arthritis score (mean spontaneous pain rating) measured on Days 0 to 6, 8, 10, and 12.
Ceftriaxone and cefotetan were further tested using an adjuvant-induced knee joint arthritis model described by Hammell et al. 2016. Using this one-week knee joint arthritis model, CFA was injected to the knee joint on Day 0 to induce chronic arthritis and associated pain, followed by daily PWL and arthritis score (mean spontaneous pain rating) assessments from Day 0 to Day 7.
Daily treatment with ceftriaxone and cefotetan or vehicle (control group) started on Day 3 (after the arthritis score assessment on that day) and continued until Day 6. There were a total of four doses of the respective treatment from Day 3 to Day 6. […] On Day 3, the arthritis score reached the peak (reflecting the most severe arthritis), which is consistent with previous observations reported for the control group. (Hammell et al., 2016).

SARS-CoV-2 = format: cell-based; conditions: cell culture; data not shown
AngII-induced AAA = assay: angiotensin (AngII)-induced abdominal aortic aneurysm model; format: in vivo, ApoE-deficient mice; conditions: AngII minipump 28 days; ceftriaxone given beginning on Day 5
Protocol: FIG. 7 illustrates the anti-inflammatory effects of ceftriaxone in terms of maximum aortic diameter.
Ceftriaxone was also tested in treatment of angiotensin (AngII)-induced AAA model. This experiment was performed using ApoE-deficient mice. AngII (with a minipump to continuously release the AngII solution within 28 days) was used to induce AAA in this strain of mice beginning Day 0 for all animals in both control and intervention groups.
The AAA was characterized by the maximum aortic diameter […] detected by the ultrasound method. Ceftriaxone was given beginning on Day 5 for intervention.

[7] = system: chronic inflammatory arthritis; conditions: placebo-controlled, double-blind study; cited from earlier work
[8] = system: proinflammatory cytokines (including TNF-α), GLT-1; conditions: animal models of inflammation and pain/hyperalgesia; cited from earlier work

Structure (SMILES)	Cmax [1]	effect on carrageenan-induced hyperalgesia (PWL) [2]	pain relief (PWL), post-treatment [3]	effect on carrageenan-induced paw edema (percent increase in paw volume) [5]	arthritis score (mean spontaneous pain rating) [6]	also measured
N#C/C(=C/c1ccc(O)c(O)c1)C(=O)NCc1ccccc1 [AG490]						block of PGE2-induced inflammatory hyperalgesia effect (JAK): able to block this in vitro effect of PGE2
C[C@H]1[C@H](NC(=O)/C(=N\OC(C)(C)C(=O)O)c2csc(N)n2)C(=O)N1S(=O)(=O)O [aztreonam]	129 µM					
COc1ccc2c3c1O[C@H]1C(=O)CC[C@@]4(O)[C@@H](C2)N(C)CC[C@]314 [oxycodone]		effectively relieved the pain within six hours after oxycodone injection	significantly relieved the pain			pain (PWL) at 23 h ([2]; oxycodone 5 mg/kg IP pre-treatment, 23 h (next day)): still significant pain at 23 h; PWL peak time ([3]; oxycodone 5 mg/kg IP, post-treatment): 1 h
Cc1ccc(-c2cc(C(F)(F)F)nn2-c2ccc(S(N)(=O)=O)cc2)cc1 [celecoxib]						toxicity in mice [4]: very toxic for stomach and other issues of mice, and bleeding ulcer was observed at gastric mucosa
CO[C@@]1(NC(=O)C2SC(=C(C(N)=O)C(=O)O)S2)C(=O)N2C(C(=O)O)=C(CSc3nnnn3C)CS[C@@H]21 (stereo partly shown) [cefotetan]	440 µM	has the desired anti-inflammatory and analgesic effects	significantly, and dose-dependently, relieved the pain	has the desired anti-inflammatory and analgesic effects	mean spontaneous pain rating was reduced	IC50 (human mPGES-1): 13.5 µM
CO/N=C(\C(=O)N[C@@H]1C(=O)N2C(C(=O)O)=C(CSc3nc(=O)c(=O)[nH]n3C)CS[C@H]12)c1csc(N)n1 [ceftriaxone]	463 µM	completely suppressed carrageenan-induced hyperalgesia	significantly, and dose-dependently, relieved the pain	significantly decreased the percent increase in the paw volume	mean spontaneous pain rating was reduced	cytoprotective activity against SARS-CoV-2 infection (SARS-CoV-2): cytoprotective against SARS-CoV-2 infection; progression of AAA (maximum aortic diameter, ultrasound) (AngII-induced AAA): significantly stopped the progression of AAA, and it even reversed the AAA; clinical efficacy in chronic inflammatory arthritis [7]: efficacious in treatment of chronic inflammatory arthritis; effect on proinflammatory cytokines and GLT-1 [8]: effectively attenuated the proinflammatory cytokines (including TNF-α) and reversed the downregulation of GLT-1
